In publication PMC7316895, “Identification of a Compound That Inhibits the Growth of Gram-Negative Bacteria by Blocking BamA–BamD Interaction” (Frontiers in Microbiology, 2020):

Target: T1, BamA (Escherichia coli, UniProt P0A940)
T1 construct: biotinylated for BLI
Experiment: biolayer interferometry ([…] global fit); supported by GST pull-down showing dose-dependent loss of BamA–BamD interaction
Format: binding

Question: Which Kd does the source give for `COC(=O)c1c(NC(=O)c2ccc([N+](=O)[O-])o2)sc2c1CCN(C(C)C)C2` [IMB-H4] here?
Answer: Its Kd is 3.90E^–6.
